We go through two compounds from paper PMC3161034 (BMC Cancer, 2011).

In data set [1] the test system is patients with solid tumors. Put plainly: Adverse events graded by CTCAE version 3.0, relatedness by investigator. The data set is classed as in vivo, human. The settings on record: for Patients discontinuing treatment with the drug because of adverse events: all cohorts. The procedure: Cohort enrollment could be expanded to ensure that at least 6 evaluable patients were enrolled or in the event of unresolved safety, pharmacokinetic, or other concerns. The overall sample size could be further increased if additional dose cohorts were considered justified based on the results from the dose-escalation portion of the study. For continuous endpoints, the mean, standard error or standard deviation (SD); median; 25th and 75th percentiles; and minimum and maximum were calculated. For discrete data, the frequency and percent distributions were calculated. No formal comparisons between cohorts were performed. The data were analyzed using SAS software version 8.2 (SAS Institute, Cary, NC). […] The safety analysis set included all patients who received at least 1 dose of study therapy.

A further data set relates to deoxycytidine deaminase. Details: method as in PMID 16807468. The settings on record: cited from earlier work.
Another data set can be described thus: clinical. The following applies: for Tmax: Median tmax. As to the method: Plasma concentrations of motesanib were analyzed using a validated liquid chromatography/tandem mass spectrometry (LC-MS/MS) method with a lower limit of quantitation (LLOQ) of 0.2 ng/mL (Cedra Corp., Austin, TX).
Pharmacokinetic parameter estimates were calculated according to standard noncompartmental methods using WinNonlin software (version 5.1.1; Pharsight Corporation, Mountain View, CA) and summarized by dose level. […] For the BID cohort, AUC0—24 values for motesanib were determined by 2 × AUC0—12. The terminal elimination rate constant (λZ) was determined by linear regression of the natural logarithms of plasma concentrations versus time during the terminal phase; the corresponding t1/2 was calculated.
The GLSM were calculated by first obtaining the least squares means for the log-transformed Cmax values (logCmax) and AUC0—24 values (logAUC0—24) for weeks 3 and 2, and then converting these values back to the original scale. The ratio and 90% confidence interval (CI) of GLSM was calculated by first estimating the difference (and 90% CI) in the least squares means between weeks 3 and 2 for logCmax and logAUC0—24, and then converting the numbers back to their original scale.

The subject of another data set is CYP1A2. The following applies: cited from earlier work.
Data set [2] relates to cytochrome P450 (CYP) 3A4. The settings on record: cited from earlier work.
Data set [3] deals with patients with advanced NSCLC. The settings on record: cited from earlier work.
[4] abbreviates: 56 patients who received erlotinib.

Structures are written as SMILES.

Consider `Nc1ccn([C@@H]2O[C@H](CO)[C@@H](O)C2(F)F)c(=O)n1` [gemcitabine, reference compound], for which, in data set [1], the “Patients discontinuing treatment with the drug because of adverse events” value is 8 n. The “Metabolism by deoxycytidine deaminase” value in the data set on deoxycytidine deaminase is given as “primarily metabolized”.

Regarding `C#Cc1cccc(Nc2ncnc3cc(OCCOC)c(OCCOC)cc23)c1` [erlotinib], in “clinical” (human, in vivo, 100 mg), the “Mean t1/2, z” value fell in the range of 12 to 19 h and the Tmax fell in the range of 2 to 6 h. Moreover, the half-life in “clinical” (human, in vivo, 100 mg, Mean t1/2, z) lay within 17 to 33 h. Also, in the data set “clinical” (human, in vivo, 150 mg), the Median tmax lay within 2 to 4 h and the Tmax lay in the range of 1 to 3 h. Moreover, in “clinical” (week 3, 100 mg erlotinib QD with gemcitabine and motesanib), the Overall median tmax turned out to be 2 h. Moreover, in the data set on CYP1A2, the “Metabolism by CYP1A2” value is reported as “metabolized at least in part”. In data set [1] (setting [4]), this compound yielded an Erlotinib-related anorexia of 16 n, an Erlotinib-related diarrhea of 35 n, an Erlotinib-related fatigue of 14 n and an Erlotinib-related nausea of 23 n. In data set [1] (setting [4]), this compound had an Erlotinib-related rash of 42 n and an Erlotinib-related vomiting of 15 n. The “Patients discontinuing treatment with the drug because of adverse events” value in data set [1] is listed as 7 n. Besides, the “Incidence of erlotinib-related skin rash” value in data set [1] (present study, all patients) worked out at 75%. Moreover, in data set [2], the “Metabolism by CYP3A4” value is reported as “metabolized at least in part”. The Progression-free survival in data set [3] (phase 3, advanced NSCLC after failed first-line therapy) is listed as 1.7 mo. Besides, the Response rate in data set [3] (phase 3, P = 0.006) was 6.2%. Besides, the Overall survival in data set [3] (phase 3) is 9.2 mo.
